Laboratory results taken from ChEMBL document CHEMBL4138119, “Anti-diabetic activity of fused PPARγ-SIRT1 ligands with limited body-weight gain by mimicking calorie restriction and decreasing SGK1 expression” (Eur J Med Chem, 2017).
Calls of active or inactive are those of the source. The calls are words filed in the database; no cut-off is given here.

What was measured:
[1] = molecular target: T1, Peroxisome proliferator-activated receptor delta (Homo sapiens) (UniProt Q03181); test: Transactivation of human PPARdelta at 10 uM
T1 sequence (whole entry): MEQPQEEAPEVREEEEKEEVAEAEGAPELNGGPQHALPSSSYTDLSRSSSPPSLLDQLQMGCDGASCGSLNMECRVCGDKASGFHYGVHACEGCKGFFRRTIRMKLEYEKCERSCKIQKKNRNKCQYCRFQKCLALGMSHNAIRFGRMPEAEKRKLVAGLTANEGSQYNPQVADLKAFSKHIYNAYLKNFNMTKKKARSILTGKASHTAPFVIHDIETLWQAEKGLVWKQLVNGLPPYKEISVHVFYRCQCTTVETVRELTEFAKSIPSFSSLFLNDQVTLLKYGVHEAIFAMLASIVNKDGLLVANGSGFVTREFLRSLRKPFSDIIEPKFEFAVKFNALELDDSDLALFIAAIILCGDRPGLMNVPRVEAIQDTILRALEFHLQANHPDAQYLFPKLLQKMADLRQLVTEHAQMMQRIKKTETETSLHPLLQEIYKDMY

[2] = molecular target: T2, Peroxisome proliferator-activated receptor alpha (Homo sapiens) (UniProt Q07869); test: Transactivation of human Gal4-fused PPARalpha LBD expressed in African green monkey COS7 cells after 24 hrs by luciferase reporter gene assay relative to WY14643; format: cell-based
T2 sequence (whole entry): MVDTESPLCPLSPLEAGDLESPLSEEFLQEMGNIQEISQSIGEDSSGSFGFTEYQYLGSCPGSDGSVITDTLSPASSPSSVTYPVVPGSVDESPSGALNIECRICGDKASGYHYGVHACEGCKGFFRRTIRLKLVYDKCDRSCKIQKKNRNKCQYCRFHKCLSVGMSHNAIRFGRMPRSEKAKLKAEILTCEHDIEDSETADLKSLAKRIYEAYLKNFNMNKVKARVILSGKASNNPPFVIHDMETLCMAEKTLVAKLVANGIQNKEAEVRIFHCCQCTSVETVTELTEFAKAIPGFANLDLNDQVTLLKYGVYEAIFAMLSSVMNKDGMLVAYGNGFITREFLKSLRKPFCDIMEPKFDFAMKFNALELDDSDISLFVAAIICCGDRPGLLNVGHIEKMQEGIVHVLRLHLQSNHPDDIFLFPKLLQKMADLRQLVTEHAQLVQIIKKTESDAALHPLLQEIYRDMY

[3] = molecular target: T3, Peroxisome proliferator-activated receptor alpha (Homo sapiens, UniProt Q07869); test: Transactivation of human Gal4-fused PPARalpha LBD expressed in African green monkey COS7 cells after 24 hrs by luciferase reporter gene assay; format: cell-based
T3 sequence (Q07869 whole entry): T2 sequence (whole entry)

[4] = molecular target: T4, Peroxisome proliferator-activated receptor gamma (Homo sapiens, UniProt P37231); test: Transactivation of human Gal4-fused PPARgamma LBD expressed in African green monkey COS7 cells after 24 hrs by luciferase reporter gene assay; format: cell-based
T4 sequence (P37231 whole entry): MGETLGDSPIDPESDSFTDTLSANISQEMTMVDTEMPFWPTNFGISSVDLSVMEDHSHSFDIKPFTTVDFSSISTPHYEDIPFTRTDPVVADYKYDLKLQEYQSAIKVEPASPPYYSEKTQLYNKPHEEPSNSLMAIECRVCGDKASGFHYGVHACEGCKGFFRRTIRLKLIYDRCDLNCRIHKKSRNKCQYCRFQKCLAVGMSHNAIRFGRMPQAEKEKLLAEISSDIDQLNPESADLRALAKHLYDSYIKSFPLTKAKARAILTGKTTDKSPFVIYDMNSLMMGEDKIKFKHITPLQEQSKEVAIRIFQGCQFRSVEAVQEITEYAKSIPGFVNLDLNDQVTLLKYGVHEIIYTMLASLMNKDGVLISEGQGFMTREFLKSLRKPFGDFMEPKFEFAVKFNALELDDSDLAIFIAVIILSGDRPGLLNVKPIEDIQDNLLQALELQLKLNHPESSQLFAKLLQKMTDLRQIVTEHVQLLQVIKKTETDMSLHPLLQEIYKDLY

[5] = molecular target: T5, NAD-dependent protein deacetylase sirtuin-1 (Homo sapiens) (UniProt Q96EB6); test: Activation of recombinant human SIRT1 at 10 uM using C-terminal AMC labeled Arg-His-Lys-Lys (Ac) as substrate after 30 mins by FLUOR DE LYS fluorescent assay relative to control
T5 sequence (whole entry): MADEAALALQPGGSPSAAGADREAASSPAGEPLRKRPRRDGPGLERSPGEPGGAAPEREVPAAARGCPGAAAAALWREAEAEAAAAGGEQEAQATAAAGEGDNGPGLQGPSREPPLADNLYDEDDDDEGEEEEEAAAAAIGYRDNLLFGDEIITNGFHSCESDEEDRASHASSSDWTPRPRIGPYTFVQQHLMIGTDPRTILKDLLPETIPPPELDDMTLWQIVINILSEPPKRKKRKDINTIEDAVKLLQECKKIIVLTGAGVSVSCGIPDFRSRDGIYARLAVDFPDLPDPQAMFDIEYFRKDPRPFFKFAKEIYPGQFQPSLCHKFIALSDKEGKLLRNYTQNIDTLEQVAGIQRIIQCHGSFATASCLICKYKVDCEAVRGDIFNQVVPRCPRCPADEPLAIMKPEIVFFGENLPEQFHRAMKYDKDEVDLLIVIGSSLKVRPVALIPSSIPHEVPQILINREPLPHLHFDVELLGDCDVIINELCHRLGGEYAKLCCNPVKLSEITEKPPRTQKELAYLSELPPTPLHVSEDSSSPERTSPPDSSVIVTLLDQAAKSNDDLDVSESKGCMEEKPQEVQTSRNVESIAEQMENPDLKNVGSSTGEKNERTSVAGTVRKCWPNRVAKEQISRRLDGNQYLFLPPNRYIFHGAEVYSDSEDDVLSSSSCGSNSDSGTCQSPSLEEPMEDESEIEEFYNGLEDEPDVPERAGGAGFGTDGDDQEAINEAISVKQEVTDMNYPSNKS

[6] = Modulation of SGK1 mRNA expression in HCCD cells at 20 uM after 24 hrs by RT-PCR method relative to control; format: functional, Homo sapiens
Mus musculus [7] = test: Anti-diabetic activity in ob/ob mouse assessed as change in serum triglyceride levels at 8.4 uM/kg administered via oral gavage daily for 4 days measured on day 5 relative to control; format: functional
Mus musculus [8] = test: Anti-diabetic activity in ob/ob mouse assessed as change in serum glucose levels at 8.4 uM/kg administered via oral gavage daily for 4 days measured on day 5 relative to control; format: functional
Mus musculus [9] = test: Anti-diabetic activity in ob/ob mouse assessed as change in serum insulin levels at 8.4 uM/kg administered via oral gavage daily for 4 days measured on day 5 relative to control; format: functional
Mus musculus [10] = test: Toxicity in ob/ob mouse assessed as change in body weight at 8.4 uM/kg administered via oral gavage daily for 4 days measured on day 5 relative to control; format: organism-based; settings: in vivo, 96 h, 8.4 µmol/kg

SMILES	Activity [1]	Emax [2]	EC50 [3]	EC50 ([4]; read-out: EC50)	Activity [5]	Activity [6]	Activity (Mus musculus [7])	Activity (Mus musculus [8])	Activity (Mus musculus [9])	Activity (Mus musculus [10])	EC50 [4]
CCOC(=O)C(Cc1ccc(OCCn2c(=O)sc3cc(/C=C/c4cc(OC)cc(OC)c4)ccc32)cc1)OCC(F)(F)F (centres undefined)	inactive	136%	10 µM	0.05 µM	-7%	-62%	-3%	-11%	-14%	61%	
COc1cc(/C=C/C(=O)c2ccc3c(c2)sc(=O)n3CCOc2ccc(CC(OCC(F)(F)F)C(=O)O)cc2)cc(OC)c1 (centres undefined)	inactive	36%	10 µM	1 µM	24%	820%	-18%	-14%	28%	142%	
CCOC(=O)C(Cc1ccc(OCCn2c(=O)sc3cc(C(=O)/C=C/c4cc(O)cc(O)c4)ccc32)cc1)OCC (centres undefined)	inactive	42%	10 µM	0.02 µM	0%	243%	-28%	-30%	-4%	91%	
Cc1cccc(Nc2cc(Cl)nc(SCC(=O)O)n2)c1C [PIRINIXIC ACID]											Not Active
CCOC(=O)C(Cc1ccc(OCCn2c(=O)sc3cc(/C=C/c4cc(OC)cc(OC)c4)ccc32)cc1)OCC (centres undefined)	inactive	149%	2 µM	< 0.01 µM	13%	-23%	-35%	-36%	-28%	79%	
CCOC(Cc1ccc(OCCn2c(=O)sc3cc(C(=O)/C=C/c4cc(OC)cc(OC)c4)ccc32)cc1)C(=O)O (centres undefined)	inactive	53%	10 µM	1 µM	23%	736%	-31%	-27%	18%	150%	
CCOC(=O)C(Cc1ccc(OCCn2c(=O)sc3cc(C(=O)/C=C/c4cc(OC)cc(OC)c4)ccc32)cc1)OCC (centres undefined)	inactive	0%	10 µM	0.03 µM	2%	-14%	-34%	-25%	-7%	112%	
CCOC(Cc1ccc(OCCn2c(=O)sc3cc(/C=C/c4cc(O)cc(O)c4)ccc32)cc1)C(=O)O (centres undefined)	inactive	29%	10 µM	1 µM	92%	-39%	-52%	-45%	-40%	110%	
CCOC(=O)C(Cc1ccc(OCCn2c(=O)sc3cc(C(=O)/C=C/c4cc(OC)cc(OC)c4)ccc32)cc1)OCC(F)(F)F (centres undefined)	inactive	21%	10 µM	0.2 µM	0%	-53%	-24%	2%	17%	93%	
CCOC(=O)C(Cc1ccc(OCCn2c(=O)sc3cc(/C=C/c4cc(O)cc(O)c4)ccc32)cc1)OCC(F)(F)F (centres undefined)	inactive	149%	10 µM	0.08 µM	-28%	83%	-25%	-40%	-41%	56%	
O=C(O)C(Cc1ccc(OCCn2c(=O)sc3cc(/C=C/c4cc(O)cc(O)c4)ccc32)cc1)OCC(F)(F)F (centres undefined)	inactive	100%	10 µM	0.2 µM	128%	-57%	-39%	-40%	-43%	32%	
CCOC(=O)C(Cc1ccc(OCCn2c(=O)sc3cc(/C=C/c4cc(O)cc(O)c4)ccc32)cc1)OCC (centres undefined)	inactive	76%	10 µM	0.01 µM	59%	134%	-19%	-35%	-37%	49%	
COc1cc(/C=C/c2ccc3c(c2)sc(=O)n3CCOc2ccc(CC(OCC(F)(F)F)C(=O)O)cc2)cc(OC)c1 (centres undefined)	inactive	170%	0.3 µM	0.02 µM	-4%	89%	-23%	-36%	-61%	81%	
CCOC(=O)C(Cc1ccc(OCCn2c(=O)sc3cc(C(=O)/C=C/c4cc(O)cc(O)c4)ccc32)cc1)OCC(F)(F)F (centres undefined)	inactive	12%	10 µM	0.03 µM	24%	180%	-8%	-5%	11%	75%	
CCOC(Cc1ccc(OCCn2c(=O)sc3cc(/C=C/c4cc(OC)cc(OC)c4)ccc32)cc1)C(=O)O (centres undefined)	inactive	494%	1 µM	< 0.01 µM			-56%	-42%	-33%	192%	
